Results taken from ChEMBL document CHEMBL1201862, “PubChem BioAssay data set” (2004).
Values belong to the compound of their own block, whether it stands above or below them. Active and inactive are the calls of the source.

Columns and labels:
[1] = viability of PTEN-deleted HCT116 cells – cell-based, HCT116 PTEN knockout, dose response (AID 1047); format: functional;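 also: HCT116 colon tumor cells with PTEN knocked out; cells exposed to compound for 60 hours before readout; potency for loss of cell viability measured by luminescence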
[2] = viability of HCT116 lacking mutant beta-catenin – cell-based, human colon tumor, dose response (AID 1045); format: functional;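 also: HCT116 colon tumor cells with beta catenin knocked out; cells exposed to compound for 60 hours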
[3] = blockers of FN fibrillogenesis by fibroblasts – AH1F cells, Alexa488-FN fluorescence, cherry-picks, dose response (AID 1035475); format: functional, cell-based
[4] = viability loss in HepG2 hepatoma cells – cell-based, cherry-picks, set 5, cytotoxicity control, dose response (AID 1053118); format: functional
[5] = loss of viability in HepG2 cells – cell-based, CellTiter-Glo, cherry-picked, cytotoxicity control for Shn3 inhibitor project, dose response (AID 624134); format: functional
[6] = system: A-375; assay: MITF: Counter assay: A375 proliferation Measured in Cell-Based System Using Plate Reader - 2084-03_Inhibitor_Dose_DryPowder_Activity. [Related pubchem assays (depositor defined):AID488944]; format: functional; conditions: Homo sapiens
[7] = system: A-375; assay: proliferation inhibition in MITF-low A375 cells – cell-based, cherry-pick samples, set 2, counter-screen for MITF modulator project, dose response (AID 540335); format: functional; conditions: Homo sapiens
[8] = non-specific 3'UTR reporter inhibition in Clone20-Shn3RL – cell-based, Renilla luciferase, cherry-picked, counter-screen for Shn3 inhibitor project, dose response (AID 624133); format: functional
[9] = reduction of Shn3 3'UTR-driven luciferase in osteoblasts – cell-based, Clone20 osteoblasts, firefly luciferase, cherry-picked, dose response (AID 624132); format: functional;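 also: firefly luciferase luminescence from reporter carrying the Shn3 3'UTR in osteoblasts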
[10] = target: T1, Microphthalmia-associated transcription factor (Homo sapiens, UniProt O75030); assay: reducers of TRPM1 reporter luminescence, concentration series – cell-based, SK-MEL-5, cherry-picked, set 3, MITF inhibitor project, dose response (AID 493073); format: functional;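 also: SK-MEL-5 melanoma cells with luciferase driven by the MITF target TRPM1 promoter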
T1 sequence (O75030 whole entry): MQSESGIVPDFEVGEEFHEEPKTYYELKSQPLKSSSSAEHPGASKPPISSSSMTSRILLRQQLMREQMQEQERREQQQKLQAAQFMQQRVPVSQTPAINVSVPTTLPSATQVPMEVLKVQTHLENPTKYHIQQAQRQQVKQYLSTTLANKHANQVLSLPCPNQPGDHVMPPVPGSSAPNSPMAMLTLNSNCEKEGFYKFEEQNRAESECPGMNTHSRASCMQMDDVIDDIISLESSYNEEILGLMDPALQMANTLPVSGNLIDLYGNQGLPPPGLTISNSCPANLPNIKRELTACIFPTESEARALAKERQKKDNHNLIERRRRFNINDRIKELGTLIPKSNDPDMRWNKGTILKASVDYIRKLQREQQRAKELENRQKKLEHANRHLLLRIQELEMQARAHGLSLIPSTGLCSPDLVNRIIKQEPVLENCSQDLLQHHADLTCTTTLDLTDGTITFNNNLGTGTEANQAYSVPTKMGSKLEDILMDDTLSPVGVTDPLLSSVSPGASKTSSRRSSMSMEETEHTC

[11] = HEK293 Cytotoxicity Assay Measured in Cell-Based System Using Plate Reader - 7071-01_Inhibitor_Dose_CherryPick_Activity_Set2.; format: functional
[12] = A2780 cell killing – plate reader, dry powder samples, cytotoxicity control, dose response (AID 743046); format: functional, cell-based
[13] = system: HEK293; assay: viability loss in HEK293T cells – cell-based, ATP luminescence, cherry-pick samples, cytotoxicity control, dose response (AID 687005); format: functional; conditions: Homo sapiens;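 also: cells exposed to compound for 48 hours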
[14] = target: Paired box protein Pax-8 (Homo sapiens, UniProt Q06710); assay: PAX8 transcriptional activity inhibition in RMG-I – RMG-I cells, luciferase, cherry-pick, dose response (AID 687027); format: functional, cell-based;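 also: luciferase reporter driven by Pax8 target thyroperoxidase promoter measured by SteadyGlo luminescence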
[15] = bead-based luminescence quenchers, dual-tagged ARNT – biochemical, AlphaScreen, cherry-pick, artefact control for ARNT-TACC3 interaction inhibitor project, dose response (AID 651705); format: functional;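 also: AlphaScreen bead proximity signal that flags compounds interfering with the detection technology; potency reflects signal decrease which marks the compound as an assay artifact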
[16] = target: Arf-GAP with SH3 domain, ANK repeat and PH domain-containing protein 1 (Homo sapiens, UniProt Q9ULH1); format: functional;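 also: biochemical fluorescence polarization dose–response screen measuring inhibition of ASAP1; ASAP1 GAP domain stimulating GTP hydrolysis by truncated human ARF1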
[17] = inhibitors of EBV LMP1 NF-kappaB signaling – cell-based, luciferase reporter, luminescence, dry powder, set 2, dose response (AID 624376); format: functional
[18] = target: T2, Nuclear receptor subfamily 0 group B member 1 (Homo sapiens, UniProt P51843); format: functional, cell-based;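 also: HEK293T cells transfected with SF-1 and DAX-1 plus StAR promoter luciferase reporter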
T2 sequence (P51843 whole entry): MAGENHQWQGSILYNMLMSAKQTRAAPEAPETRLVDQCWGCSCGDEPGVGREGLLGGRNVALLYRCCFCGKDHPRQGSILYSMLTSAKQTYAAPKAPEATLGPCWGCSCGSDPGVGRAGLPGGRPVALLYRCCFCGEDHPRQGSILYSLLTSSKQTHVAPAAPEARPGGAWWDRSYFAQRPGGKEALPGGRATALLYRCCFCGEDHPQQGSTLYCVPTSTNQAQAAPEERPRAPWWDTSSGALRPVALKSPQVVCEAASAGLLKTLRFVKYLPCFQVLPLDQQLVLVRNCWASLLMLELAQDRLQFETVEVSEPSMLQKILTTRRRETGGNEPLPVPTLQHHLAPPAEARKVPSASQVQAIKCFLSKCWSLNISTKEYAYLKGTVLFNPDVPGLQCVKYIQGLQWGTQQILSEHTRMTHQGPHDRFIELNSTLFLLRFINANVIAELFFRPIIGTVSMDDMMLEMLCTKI

[19] = cells; format: functional, cell-based
[20] = blockade of melanocortin 4 receptor signaling – cell-based, plate reader, cherry pick, counter-screen for LGR2 antagonist project, dose response (AID 743444); format: functional;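 also: transfected HEK 293 cells stimulated with alpha-MSH peptide; potency of inhibitors of the alpha-MSH evoked signal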
[21] = blockers of bursicon-stimulated LGR2 cAMP reporter – cell-based, HEK293, CRE-luciferase reporter, cherry pick, set 2, dose response (AID 743343); format: functional;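 also: transfected cells were stimulated with diluted bursicon conditioned medium after compound addition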
[22] = viability loss in HEK293 cells – cell-based, plate reader, cherry-picked samples, cytotoxicity control, dose response (AID 743446); format: functional
[23] = target: fMet-Leu-Phe receptor (Homo sapiens, UniProt P21462); assay: formyl peptide receptor binders – dose response (AID 519); format: functional
fMet-Leu-Phe receptor, sequence (P21462 whole entry): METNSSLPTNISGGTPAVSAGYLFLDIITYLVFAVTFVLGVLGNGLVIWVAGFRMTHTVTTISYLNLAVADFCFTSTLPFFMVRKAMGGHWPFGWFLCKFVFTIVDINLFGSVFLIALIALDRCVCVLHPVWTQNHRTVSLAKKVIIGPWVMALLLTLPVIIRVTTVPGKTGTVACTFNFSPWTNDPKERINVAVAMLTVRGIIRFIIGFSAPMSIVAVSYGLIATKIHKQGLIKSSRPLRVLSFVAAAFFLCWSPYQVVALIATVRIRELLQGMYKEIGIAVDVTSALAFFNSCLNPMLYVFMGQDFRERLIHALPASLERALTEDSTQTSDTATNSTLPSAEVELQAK

Arf-GAP with SH3 domain, ANK repeat and PH domain-containing protein 1, sequence (Q9ULH1 whole entry, the tested form may be a part): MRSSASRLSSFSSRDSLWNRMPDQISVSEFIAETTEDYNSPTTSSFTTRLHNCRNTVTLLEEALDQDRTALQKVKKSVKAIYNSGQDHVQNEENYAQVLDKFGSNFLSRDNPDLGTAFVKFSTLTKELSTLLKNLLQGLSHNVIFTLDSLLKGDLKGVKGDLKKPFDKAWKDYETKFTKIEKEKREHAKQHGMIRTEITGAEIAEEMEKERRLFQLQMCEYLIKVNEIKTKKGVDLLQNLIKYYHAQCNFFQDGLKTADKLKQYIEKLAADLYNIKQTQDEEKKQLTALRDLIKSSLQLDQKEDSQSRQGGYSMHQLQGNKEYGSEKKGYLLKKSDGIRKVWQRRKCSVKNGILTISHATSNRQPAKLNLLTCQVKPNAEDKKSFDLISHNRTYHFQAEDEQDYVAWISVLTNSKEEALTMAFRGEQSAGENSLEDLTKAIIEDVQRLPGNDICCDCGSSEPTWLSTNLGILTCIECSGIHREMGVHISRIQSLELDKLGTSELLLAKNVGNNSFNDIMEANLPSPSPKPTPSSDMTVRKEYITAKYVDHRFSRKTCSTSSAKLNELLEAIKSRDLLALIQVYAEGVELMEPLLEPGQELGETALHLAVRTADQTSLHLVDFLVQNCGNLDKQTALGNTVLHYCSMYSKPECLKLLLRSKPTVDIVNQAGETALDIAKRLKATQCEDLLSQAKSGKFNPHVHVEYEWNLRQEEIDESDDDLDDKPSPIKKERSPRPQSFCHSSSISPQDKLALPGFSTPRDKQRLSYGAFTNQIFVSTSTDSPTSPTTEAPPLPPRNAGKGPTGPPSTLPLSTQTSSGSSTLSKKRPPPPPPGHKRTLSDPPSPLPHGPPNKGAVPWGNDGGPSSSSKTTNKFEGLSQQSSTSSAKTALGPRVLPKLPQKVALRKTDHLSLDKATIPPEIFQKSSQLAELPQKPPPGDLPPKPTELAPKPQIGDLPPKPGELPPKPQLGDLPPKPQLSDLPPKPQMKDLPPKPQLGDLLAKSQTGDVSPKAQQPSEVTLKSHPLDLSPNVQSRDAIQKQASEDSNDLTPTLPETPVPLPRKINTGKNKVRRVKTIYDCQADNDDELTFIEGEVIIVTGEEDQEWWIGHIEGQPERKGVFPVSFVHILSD
Paired box protein Pax-8, sequence (Q06710 whole entry): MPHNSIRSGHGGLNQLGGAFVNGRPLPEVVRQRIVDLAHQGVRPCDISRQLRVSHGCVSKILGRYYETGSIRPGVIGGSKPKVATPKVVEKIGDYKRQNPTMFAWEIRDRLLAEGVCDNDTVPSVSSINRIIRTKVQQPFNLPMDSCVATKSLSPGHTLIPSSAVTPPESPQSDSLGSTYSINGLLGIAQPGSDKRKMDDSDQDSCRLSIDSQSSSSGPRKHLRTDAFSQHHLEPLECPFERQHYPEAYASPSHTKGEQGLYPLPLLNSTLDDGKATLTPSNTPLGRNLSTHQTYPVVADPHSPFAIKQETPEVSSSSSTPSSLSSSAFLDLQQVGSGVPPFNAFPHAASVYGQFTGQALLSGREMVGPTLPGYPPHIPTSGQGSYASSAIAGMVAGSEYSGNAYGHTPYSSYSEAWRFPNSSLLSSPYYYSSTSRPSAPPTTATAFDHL

Structure (SMILES): Cn1cc([N+](=O)[O-])c(C(=O)Nc2cc(Oc3ccccc3)cc([N+](=O)[O-])c2)n1
EC50 [1]: 0.389 µM (active)
EC50 [2]: 0.309 µM (active)
AC50 [3]: 12.3 µM (active)
AC50 [4]: 21.9 µM (active)
AC50 [5]: 19.8 µM (active)
AC50 [6]: > 35 µM (active)
AC50 [7]: > 35 µM (active)
AC50 [8]: 2.82 µM (active)
AC50 [9]: 5.41 µM (active)
AC50 [10]: 12.4 µM (active)

Structure (SMILES): COc1cccc(S(=O)(=O)N(C)C[C@@H]2OCc3ccccc3-c3ccccc3C(=O)N([C@@H](C)CO)C[C@@H]2C)c1
AC50 [11]: 36 µM (active)
AC50 [12]: 53.8 µM (active)
AC50 [13]: 36 µM (active)
AC50 [14]: 15.9 µM (active)

Structure (SMILES): O=C(Nc1ccc(F)cc1)c1nc[nH]c1C(=O)O
AC50 [15]: 105 µM (active)

IC50 [16]: 28.1 µM (inactive)
Structure (SMILES): O=C(Cn1cncc1-c1ccc([N+](=O)[O-])cc1)Nc1cccc2ccccc12

Structure (SMILES): Cc1noc(C)c1S(=O)(=O)Nc1ccc2c(c1)C(=O)N([C@@H](C)CO)C[C@H](C)[C@@H](CN(C)Cc1ccc(C(F)(F)F)cc1)OCCCC[C@@H](C)O2
AbsAC35 [17]: 101.91 µM

Structure (SMILES): Cc1ccnc(NC(=O)c2cccc(S(=O)(=O)N3CCN(c4ccccc4)CC3)c2)c1
IC50 [18]: > 67.5 µM (inactive)
IC50 [19]: > 67.5 µM (inactive)
AC50 [20]: 14.6 µM (active)
AC50 [21]: 12.4 µM (active)
AC50 [22]: > 52 µM (inactive)

Ki [23]: > 66.7 µM (inactive)
Structure (SMILES): COc1ccc(OC)c(NC(=O)C2C3CCC(C3=C(C)C)C2C(=O)O)c1 (stereo not drawn)
